# Assay results reported in the supplement of paper PMC10307832.
# Assays:
# [1] = compound: C1CC(C2=C(C1)C3=C(N2)C=CC(=C3)Cl)C(=O)N [Selisistat] + COc1cc2c(Oc3ccc(NC(=O)C4(C(=O)Nc5ccc(F)cc5)CC4)cc3F)ccnc2cc1OCCCN1CCOCC1 [Foretinib] (partner 0.25 µM); test: relative viability (nuclei count vs DMSO), 5 days (fraction); higher = more cells survive
# How it was run: (§1)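 Medians of duplicate plates are given as relative viability. That measure is the nuclei count in treated wells divided by the count in vehicle wells. Counts were taken on 4× images of lung cancer cell lines in 1536-well plates, 5 days after pin-tool dosing the day after seeding with one drug alone or a fixed anchor-drug dose plus five library-drug doses (not always all listed) in √10 steps.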
# [2] = compound: c1ccc2c(CCNc3ccc(Nc4ccncc4)cc3)c[nH]c2c1 [Serdemetan] + Cc1cc(Nc2cc(N3CCN(C)CC3)nc(Sc3ccc(NC(=O)C4CC4)cc3)n2)n[nH]1 [Tozasertib] (partner 0.1 µM); test: as above
# How it was run: as §1
Cell Line,relative viability ([1]; first compound 0.4 µM),relative viability ([1]; first compound 1.265 µM),relative viability ([1]; first compound 4 µM),relative viability ([1]; first compound 12.65 µM),relative viability ([1]; first compound 40 µM),relative viability ([2]; first compound 0.04 µM),relative viability ([2]; first compound 0.1265 µM),relative viability ([2]; first compound 0.4 µM),relative viability ([2]; first compound 1.265 µM),relative viability ([2]; first compound 4 µM)
NCI-H1666,0.993,0.993,0.927,0.943,0.858,0.569,0.588,0.588,0.553,0.547
NCI-H2085,0.971,0.98,0.873,0.881,0.884,0.813,0.797,0.77,0.708,0.574
NCI-H1734,0.956,0.822,0.868,0.889,0.815,0.29,0.235,0.209,0.142,0.134
NCI-H2126,1.27,1.16,1.17,1.32,1.16,0.867,0.874,0.786,0.832,0.79
EMC-BAC-2,1.03,0.97,0.962,1.11,0.842,0.246,0.298,0.248,0.22,0.217
NCI-H1993,0.745,0.798,0.696,0.949,0.707,0.578,0.579,0.592,0.568,0.562
NCI-H520,0.691,0.699,0.715,0.801,0.746,0.42,0.413,0.441,0.329,0.313
NCI-H647,1.18,1.13,1.19,1.16,1.25,0.355,0.291,0.226,0.287,0.223
SK-LU-1,0.883,0.811,0.865,0.813,0.825,0.378,0.298,0.337,–,0.294
ChaGo-K-1,0.927,0.896,0.922,0.857,0.843,0.231,0.232,0.2,0.178,0.167
NCI-H522,–,–,–,–,–,0.554,0.575,0.44,–,0.497
NCI-H1299,1.16,1.13,1.15,1.07,1.11,–,–,–,–,–
NCI-H1650,1.11,1.03,1.02,0.999,1.18,0.415,0.483,0.405,0.389,0.351
NCI-H2009,1.33,1.17,–,1.22,1.17,0.7,0.712,0.705,0.675,0.625
LOU-NH91,1.01,0.938,0.872,0.928,0.896,0.692,0.654,0.442,0.509,0.684
NCI-H2405,1.06,1.09,1.07,1.06,1.02,0.7,0.704,0.734,0.659,0.662
NCI-H1648,–,–,–,–,–,–,0.46,0.38,0.206,0.299
LCLC-97TM1,0.861,0.849,–,0.907,0.862,0.256,0.202,0.235,–,0.169

Cell Line,relative viability ([1]; first compound 0.4 µM),relative viability ([1]; first compound 1.265 µM),relative viability ([1]; first compound 4 µM),relative viability ([1]; first compound 12.65 µM),relative viability ([1]; first compound 40 µM),relative viability ([2]; first compound 0.04 µM),relative viability ([2]; first compound 0.1265 µM),relative viability ([2]; first compound 0.4 µM),relative viability ([2]; first compound 1.265 µM),relative viability ([2]; first compound 4 µM)
NCI-H596,1.09,0.693,0.846,0.89,0.585,0.825,0.787,0.774,0.513,0.34
NCI-H727,0.883,1.05,–,1.04,0.872,0.695,0.542,0.509,0.585,0.518
H3255,0.863,0.9,0.837,0.84,0.767,0.678,0.693,0.629,0.626,0.556
SK-MES-1,0.908,0.762,0.624,0.879,0.883,0.871,0.859,0.851,0.747,0.865
NCI-H1437,1.29,1.21,1.33,1.06,1,0.375,0.399,0.383,0.331,0.285
NCI-H2342,0.997,0.986,0.896,1.09,1.07,0.607,0.553,0.605,0.493,0.408
LU99A,0.825,0.744,0.774,0.773,0.801,0.321,0.297,0.265,0.183,0.185
SW 900,0.921,0.778,0.798,0.955,0.977,0.494,0.413,0.441,0.329,0.359
HCC-827,1.17,1.09,1.02,0.9,1.08,0.406,0.393,–,0.297,0.308
LK-2,0.955,1.04,1.45,0.955,1.01,0.171,0.176,0.194,0.207,0.168
HCC-366,0.837,0.892,0.755,0.862,0.957,0.134,0.0681,0.0532,0.0456,0.042
BEN,0.575,0.553,0.373,0.558,0.468,0.451,0.477,0.531,0.478,0.469
NCI-H23,0.579,0.779,0.805,0.935,0.565,0.436,0.413,0.358,0.305,0.265
NCI-H1395,1.01,0.993,0.909,1.03,0.878,0.736,0.742,0.838,0.751,0.513
A549,1.04,0.826,0.945,0.917,0.985,–,–,–,–,–
201T,1.06,1.03,0.997,0.986,1.11,0.983,0.939,0.925,0.787,0.497
NCI-H2170,1.11,1,0.943,1.03,1.08,0.662,0.732,0.7,0.276,0.685
NCI-H1563,1.05,0.91,0.941,0.9,0.809,–,–,–,–,–
